Test results published in patent US8486991B2, “Enantiomerically pure phosphoindoles as HIV inhibitors” (Idenix Pharmaceuticals, Inc., priority 2006, dated 2013).
Like-named read-outs stand apart in the source and are kept apart here.

Assays:
HIV-2 ROD = HIV-2 ROD WT in H9 cell assay; assay type: cell-based
Description: The susceptibility of HIV type 2 ROD in H9 cells to Compound I and Compound III was determined against zidovudine (AZT) as a control.

[1] = In vivo pharmacokinetics, monkeys; set-up: species or system monkey; conditions: for bioavailability: read-out: BA (absolute oral bioavailability); for concentration at 24 h: 5 mg/kg oral dose, read-out: plasma concentrations at 24 hours post-dose
Description: (§1) All animals received a single oral or intravenous dose of compound in either polyethylene glycol 400 (PEG400) or a mixture of 10% ethanol (EtOH), 10% dimethylacetamine (DMA) and 80% PEG400 at the indicated dose level. Plasma concentration data were acquired using sensitive and specific LC-MS/MS methods. Pharmacokinetic data from the toxicity study included aspects of gender differences, variability and exposure.
(§2) Blood samples (1.5-2.5 mL) were collected in heparinized tubes at 0 (pre-dose), 5 (IV only), 10, 20, 30 min, 1, 2, 4, 6, 8, 12 (PO only) and 24 hr after dosing. Plasma was separated and stored at −70° C. until analysis.
(§3) Concentrations of unlabeled compound I and compound III within plasma samples and excreta from rat, dog and monkey PK studies were identified through high performance liquid chromatographic (HPLC) methods that incorporated tandem mass spectrometric detection (LC-MS/MS).
(§4) The absolute oral bioavailability was determined in pharmacokinetic by comparison of AUC values of parent compound following single intravenous and oral doses of in rats (compound III only), dogs and monkeys.

[2] = In vivo pharmacokinetics, dogs; conditions: both sexes, Dog; for Tmax: mean; for bioavailability: read-out: BA (absolute oral bioavailability)
Description: as §1, §2, §3, §4

CYP3A4 = CYP3A4 (Homo sapiens, UniProt P08684); assay: Human liver microsomal CYP450 inhibition, CYP3A4; conditions: for Ki / Type of inhibition, CYP3A4 (Midazolam) / Type of inhibition, CYP3A4 (Testosterone) / kinact: human liver microsomes; for IC50: pooled human liver microsomes, probe midazolam and testosterone; for type of inhibition of CYP3A4: text b965, substrate not stated
[3] = In vitro half-life in liver microsomes, dog; assay type: in vitro ADME; conditions: up to one hour, longer half-lives are extrapolated, n=1
Description: In vitro metabolism was assessed using liver microsomes for all species. Compounds were incubated at 1 μM with liver microsomes for up to one hour. Reported half-lives greater than the total incubation time are extrapolated values. Extracts were assayed for disappearance of parent compound by LC-MS/MS detection.
Data represents one independent experiment conducted.

[4] = biological target: T1, HIV-1 RT V1081 (V108I) mutant enzyme (Human immunodeficiency virus type 1 group M subtype B, UniProt P03366, V707I); assay: biochemical; conditions: for Average Fold Changes ± Standard Deviation, V1081: Table 4
T1 construct: Antiviral in vitro activity against site-directed mutant HIV-1 RT enzymes
From the text: (§5) In Vitro Antiviral Activity Against Additional Mutant HIV RT Enzymes
(§6) The studies are summarized in the text that follows.

[5] = biological target: T2, HIV-1 RT L1001 (L100I) mutant enzyme (Human immunodeficiency virus type 1 group M subtype B, UniProt P03366, L699I); assay: biochemical; conditions: for Average Fold Changes ± Standard Deviation, L1001: Table 4
T2 construct: Antiviral in vitro activity against site-directed mutant HIV-1 RT enzymes
From the text: as §5, §6

[6] = biological target: T3, HIV-1 RT E138K mutant enzyme (Human immunodeficiency virus type 1 group M subtype B, UniProt P03366, E737K); assay: biochemical; conditions: for Average Fold Changes ± Standard Deviation, E138K: Table 4
T3 construct: Antiviral in vitro activity against site-directed mutant HIV-1 RT enzymes
From the text: as §5, §6

[7] = biological target: T4, HIV-1 RT L1001/K103N (L100I/K103N) mutant enzyme (Human immunodeficiency virus type 1 group M subtype B, UniProt P03366, K702N/L699I); assay: biochemical; conditions: for Average Fold Changes ± Standard Deviation, L1001/K103N: Table 4
T4 construct: Antiviral in vitro activity against site-directed mutant HIV-1 RT enzymes
From the text: as §5, §6

[8] = biological target: T5, HIV-1 RT V106M mutant enzyme (Human immunodeficiency virus type 1 group M subtype B, UniProt P03366, V705M); assay: biochemical; conditions: for Average Fold Changes ± Standard Deviation, V106M: Table 4
T5 construct: Antiviral in vitro activity against site-directed mutant HIV-1 RT enzymes
From the text: as §5, §6

[9] = biological target: T6, HIV-1 RT M184V mutant enzyme (Human immunodeficiency virus type 1 group M subtype B, UniProt P03366, M783V); assay: biochemical; conditions: for Average Fold Changes ± Standard Deviation, M184V: Table 4
T6 construct: Antiviral in vitro activity against site-directed mutant HIV-1 RT enzymes
From the text: as §5, §6

[10] = biological target: T7, HIV-1 RT Y188L mutant enzyme (Human immunodeficiency virus type 1 group M subtype B, UniProt P03366, Y787L); assay: biochemical; conditions: for Average Fold Changes ± Standard Deviation, Y188L: Table 4
T7 construct: Antiviral in vitro activity against site-directed mutant HIV-1 RT enzymes
From the text: as §5, §6

CYP1A2 = biological target: T8, CYP1A2 (Homo sapiens, UniProt P05177); assay: Human liver microsomal CYP450 inhibition, CYP1A2; conditions: for IC50, CYP1A2: human liver microsomes
T8 sequence (P05177 1-516): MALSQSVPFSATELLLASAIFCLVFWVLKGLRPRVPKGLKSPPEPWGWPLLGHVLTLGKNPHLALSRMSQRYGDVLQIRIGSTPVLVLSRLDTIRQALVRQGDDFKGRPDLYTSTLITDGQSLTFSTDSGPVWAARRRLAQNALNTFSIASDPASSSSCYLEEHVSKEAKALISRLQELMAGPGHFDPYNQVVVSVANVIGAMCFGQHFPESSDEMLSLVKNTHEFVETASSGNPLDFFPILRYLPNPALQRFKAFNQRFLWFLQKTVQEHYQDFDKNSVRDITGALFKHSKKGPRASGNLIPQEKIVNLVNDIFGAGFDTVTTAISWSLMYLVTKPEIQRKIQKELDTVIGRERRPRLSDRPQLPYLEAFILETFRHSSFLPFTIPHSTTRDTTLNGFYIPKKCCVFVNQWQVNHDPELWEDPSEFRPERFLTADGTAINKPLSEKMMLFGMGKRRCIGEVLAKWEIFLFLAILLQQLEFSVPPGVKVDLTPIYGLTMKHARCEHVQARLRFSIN
Description: In addition, the type of inhibition was also evaluated.
Enzyme kinetic studies of cytochrome P450 isozyme inhibition were conducted using human liver microsomes.

CYP2D6 = CYP2D6 (Homo sapiens, UniProt P10635); assay: Recombinant CYP450 inhibition, fluorometric, CYP2D6; assay type: in vitro ADME; set-up: from tissue; host or cells: pooled human liver microsomes; conditions: read-out: percentage of inhibition at the highest concentration tested, CYP2D6
Description: Compounds were assayed using recombinant human microsomal proteins with fluorometric substrates. Signal was measured with a Fusion plate reader utilizing the appropriate excitation and emission wavelength set to detect the specific metabolite: […]

[11] = Table 18, highest concentration assayed 1.25 μM
[12] = CYP3A4 (Testosterone), time dependent inhibition
[13] = plasma, 20 mg/kg PO-Fed, 1M, 1F

Sequence of CYP3A4 (P08684 whole entry): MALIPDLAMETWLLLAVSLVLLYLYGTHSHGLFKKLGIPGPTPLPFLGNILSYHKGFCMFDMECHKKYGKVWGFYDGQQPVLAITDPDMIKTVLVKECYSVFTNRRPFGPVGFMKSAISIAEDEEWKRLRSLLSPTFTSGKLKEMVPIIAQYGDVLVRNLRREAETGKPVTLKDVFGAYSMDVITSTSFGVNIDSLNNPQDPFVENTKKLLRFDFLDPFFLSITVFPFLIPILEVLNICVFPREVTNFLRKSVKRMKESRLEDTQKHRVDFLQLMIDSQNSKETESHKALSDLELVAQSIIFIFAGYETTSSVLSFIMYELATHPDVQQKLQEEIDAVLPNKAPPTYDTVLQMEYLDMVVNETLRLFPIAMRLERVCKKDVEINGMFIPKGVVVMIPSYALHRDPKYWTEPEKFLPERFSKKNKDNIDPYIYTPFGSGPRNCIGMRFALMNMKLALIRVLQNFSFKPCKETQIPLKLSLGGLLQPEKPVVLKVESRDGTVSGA
Sequence of CYP2D6 (P10635 whole entry, the tested form may be a part): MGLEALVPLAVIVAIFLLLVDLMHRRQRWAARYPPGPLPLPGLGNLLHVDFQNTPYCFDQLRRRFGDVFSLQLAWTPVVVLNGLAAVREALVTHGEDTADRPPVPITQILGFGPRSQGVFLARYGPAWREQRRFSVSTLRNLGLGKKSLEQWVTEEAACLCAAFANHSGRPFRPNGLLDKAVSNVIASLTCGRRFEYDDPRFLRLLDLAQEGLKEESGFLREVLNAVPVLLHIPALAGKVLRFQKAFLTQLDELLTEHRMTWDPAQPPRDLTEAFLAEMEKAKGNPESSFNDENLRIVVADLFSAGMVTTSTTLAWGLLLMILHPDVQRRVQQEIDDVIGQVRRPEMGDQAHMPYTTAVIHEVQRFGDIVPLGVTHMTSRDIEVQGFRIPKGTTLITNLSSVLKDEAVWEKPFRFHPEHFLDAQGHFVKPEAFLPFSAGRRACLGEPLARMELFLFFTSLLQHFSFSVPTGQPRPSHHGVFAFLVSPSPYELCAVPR

SMILES | EC50 Values (HIV-2 ROD; [11]) | Ki (CYP3A4; [12]) [nM] | Type of inhibition, CYP3A4 (Midazolam) (CYP3A4) | Type of inhibition, CYP3A4 (Testosterone) (CYP3A4) | kinact (CYP3A4; human, probe midazolam) [s⁻¹] | kinact (CYP3A4; human, probe testosterone) [s⁻¹] | IC50 (CYP3A4; human) [nM] | type of inhibition of CYP3A4 (CYP3A4) | IC50 [4] [nM] | Average Fold Changes ± Standard Deviation, V1081 [4] [fold] | IC50 [5] [nM] | Average Fold Changes ± Standard Deviation, L1001 [5] [fold] | IC50 [6] [nM] | Average Fold Changes ± Standard Deviation, E138K [6] [fold] | IC50 [7] [nM] | Average Fold Changes ± Standard Deviation, L1001/K103N [7] [fold] | IC50 [8] [nM] | Average Fold Changes ± Standard Deviation, V106M [8] [fold] | IC50 [9] [nM] | Average Fold Changes ± Standard Deviation, M184V [9] [fold] | further results
CO[P@](=O)(c1cc(C)cc(/C=C/C#N)c1)c1c(C(N)=O)[nH]c2ccc(Cl)c(F)c12 [Compound I, (2-Carbamoyl-5-chloro-4-fluoro-1H-indol-3-yl)-[3-((E)-2-cyano-vinyl)-5-methyl-phenyl]-(R)-phosphinic acid methyl ester] | failed to suppress HIV-2 ROD replication | 140 | mechanism-based inhibition | mechanism-based inhibition | 0.0012 | 0.00055 | < 10000 | mechanism based inhibition | 1200 ± 710 | 4.0 ± 5.3 | 160 ± 30 | 0.5 ± 0.2 | 4670 ± 910 | 15.5 ± 6.8 | 430 ± 330 | 2.4 ± 1.2 | 230 ± 60 | 1.2 ± 0.5 | 290 ± 80 | 1.7 ± 0.5 | EC50 (HIV-2 ROD; Human immunodeficiency virus 2, H9, read-out: EC50 Values): > 1250 nM; bioavailability in males based on AUC values, excluding one animal ([1]; Monkey, 5 mg/kg oral): 75%; Tmax ([1]; female, monkey, in vivo, po, 5 mg/kg, 5 mg/kg PO-Fed, 3F, median): 4 h; bioavailability ([1]; female, monkey, in vivo, po, 5 mg/kg, Monkey, 5 mg/kg PO-Fed, 3F (females)): 61%; concentration at 24 h ([1]; in vivo, monkey): 17.9 ng/mL; Tmax ([1]; male, monkey, in vivo, po, 5 mg/kg, 5 mg/kg PO-Fed, 3M, median): 4 h; Tmax ([1]; male, monkey, in vivo, po, 5 mg/kg, 5 mg/kg PO-Fed, males (3M or 2M), mean): 2.7 h; bioavailability ([1]; male, monkey, in vivo, po, 5 mg/kg, Monkey, 5 mg/kg PO-Fed, 3M (males)): 54%; bioavailability ([1]; male, monkey, in vivo, po, 5 mg/kg, Monkey, 5 mg/kg PO-Fed, males (3M or 2M), exploratory study): 58%; Tmax ([2]; in vivo, 5 mg/kg PO-Fed, M+F): 0.3 h; bioavailability ([2]; in vivo, 5 mg/kg PO-Fed, M+F, IV 1 mg/kg): 9%; Ki (CYP3A4; human, 3A4, Example 18 table): 360 nM; Ki (CYP3A4; human, probe midazolam, CYP3A4 (Midazolam), time dependent inhibition): 180 nM; half-life at 1 μM ([3]; microsomes): 0.322 h; IC50 [10]: 1250 ± 380 nM; Average Fold Changes ± Standard Deviation, Y188L [10]: 6.0 ± 1.7 fold; IC50 (CYP1A2): > 20000 nM; IC50, CYP1A2 (CYP1A2): not observed; inhibition at 10 µM (CYP2D6; recombinant enzyme): 11.2%
CO[P@](=O)(c1cc(C)cc(/C=C/C#N)c1)c1c(C(N)=O)[nH]c2ccc(Cl)cc12 [Compound III, (2-Carbamoyl-5-chloro-1H-indol-3-yl)-[3-((E)-2-cyano-vinyl)-5-methyl-phenyl]-(R)-phosphinic acid methyl ester] | failed to suppress HIV-2 ROD replication | 210 | mechanism-based inhibition | mechanism-based inhibition | 0.001 | 0.000833 | < 10000 | mechanism based inhibition | 830 ± 350 | 3.8 ± 3.8 | 130 ± 60 | 0.6 ± 0.6 | 2990 ± 180 | 13.7 ± 1.9 | 400 ± 260 | 1.8 ± 0.8 | 200 ± 60 | 1.0 ± 0.3 | 170 ± 80 | 0.8 ± 0.3 | EC50 (HIV-2 ROD; Human immunodeficiency virus 2, H9, Table 18, highest concentration assayed 1.25 μM, read-out: EC50 Values): > 1250 nM; Tmax ([1]; female, monkey, plasma, po, 5 mg/kg, 5 mg/kg PO-Fed, 3F, median): 2 h; bioavailability ([1]; female, plasma, Monkey, 5 mg/kg PO-Fed, 3F (females)): 76%; Tmax ([1]; male, monkey, plasma, po, 5 mg/kg, 5 mg/kg PO-Fed, 3M, median): 2 h; Tmax ([1]; male, monkey, plasma, po, 5 mg/kg, 5 mg/kg PO-Fed, males (3M or 2M), mean): 3 h; Tmax ([1]; male, monkey, plasma, po, 20 mg/kg, 20 mg/kg PO-Fed, 2M, mean): 2.5 h; bioavailability ([1]; male, plasma, Monkey, 5 mg/kg PO-Fed, 3M (males)): 42%; bioavailability ([1]; male, plasma, Monkey, 20 mg/kg PO-Fed, 2M): 61%; concentration at 24 h ([1]; plasma, monkey): 12 ng/mL; Tmax ([2]; plasma, 5 mg/kg PO-Fed, M+F): 1.5 h; bioavailability ([2]; plasma, 5 mg/kg PO-Fed, M+F, IV 1 mg/kg): 4%; Tmax [2, 13]: 2.2 h; bioavailability [2, 13]: 23%; Ki (CYP3A4; CYP3A4 (Midazolam), time dependent inhibition): 60 nM; half-life at 1 μM ([3]; liver microsomes): 0.22 h; IC50 [10]: 1150 ± 360 nM; Average Fold Changes ± Standard Deviation, Y188L [10]: 7.0 ± 5.9 fold; IC50 (CYP1A2): > 20000 nM; IC50, CYP1A2 (CYP1A2): not observed; inhibition at 10 µM (CYP2D6; recombinant human CYP2D6 microsomal protein): 15.2%
